By AC50 is commonly meant the midpoint of the concentration-response curve, whichever way the signal moves. As usually defined, the EC50 is the concentration giving half of the maximal effect. For orientation: CC50 means the concentration giving 50% cytotoxicity. One may read the IC50 as the concentration needed to halve the response being measured.

Five compounds from ChEMBL document CHEMBL1201862, “PubChem BioAssay data set” (2004) can be followed below.

Assay [1] can be described thus: Luminescence Cell-Based Dose Retest to Confirm Inhibitors of Cancer Stem Cells. [Related pubchem assays (depositor defined):AID2717, AID2721]. The assay is classed as functional. The note with it: Homo sapiens.
Assay [2] can be described thus: Luminescence Cell-Based Dose Confirmation HTS to Identify Activators of 5'UTR Stem-Loop Driven Alpha-Synuclein mRNA Translation in H4 Neuroglioblastoma Cells. [Related pubchem assays: 1829 (Project Summary), 1814 (Primary HTS)]. The assay is classed as functional.
The next assay has as its system H4. In words: Luminescence Cell-Based Dose Response HTS to Identify Activators of 5'UTR Stem-Loop Driven Prion Protein mRNA Translation in H4 Neuroglioblastoma Cells. [Related pubchem assays: 1829 (Project Summary), 1814 (Primary HTS)]. The class given is functional. Particulars: Homo sapiens.
Assay [3] is described as follows: THP-1 cell cytotoxicity, dose response, cytotoxicity control for non-replicating M. tuberculosis project (AID 489025). The class given is functional.
A short description of assay [4]: Vero E6 cell cytotoxicity, dose response, cytotoxicity control for non-replicating M. tuberculosis project, secondary assay (AID 492998). The assay is classed as functional, VeroE6. Particulars: Vero C1008.
Assay [5] concerns the target T1, Microphthalmia-associated transcription factor (Homo sapiens, UniProt O75030).
T1 sequence (O75030 whole entry): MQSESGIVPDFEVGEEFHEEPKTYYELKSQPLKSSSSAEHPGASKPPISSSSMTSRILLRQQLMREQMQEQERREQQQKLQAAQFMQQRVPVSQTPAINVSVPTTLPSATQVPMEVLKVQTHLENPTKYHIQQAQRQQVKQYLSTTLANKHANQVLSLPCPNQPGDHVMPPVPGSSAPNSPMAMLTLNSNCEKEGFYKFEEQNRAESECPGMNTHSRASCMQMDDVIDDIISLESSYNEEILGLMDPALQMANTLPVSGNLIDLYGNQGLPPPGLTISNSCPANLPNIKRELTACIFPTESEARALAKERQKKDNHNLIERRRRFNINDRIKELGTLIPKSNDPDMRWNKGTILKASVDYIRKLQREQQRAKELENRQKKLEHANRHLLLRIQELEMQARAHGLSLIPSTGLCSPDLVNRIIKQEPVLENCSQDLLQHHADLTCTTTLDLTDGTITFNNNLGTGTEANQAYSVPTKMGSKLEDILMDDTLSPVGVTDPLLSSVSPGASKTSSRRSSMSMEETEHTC
In words: TRPM1 promoter luciferase signal decrease, dose response, MITF inhibitor project, cell-based, SK-MEL-5, cherry-picked, set 3 (AID 493073).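 Note: SK-MEL-5 melanoma cells with luciferase driven by the MITF target TRPM1 promoter.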 The class given is functional.

The next assay in a line: cells. The assay is classed as functional.
The nature of assay [6]: Luminescence Cell-Based Dose Response HTS to Identify Activators of Luciferase Translation or Activity in H4 […] Cells. [Related pubchem assays: 1829 (Project Summary), 1814 (Primary HTS)]. The assay is classed as functional.
Assay [7] deals with Peroxisome proliferator-activated receptor gamma/Nuclear receptor coactivator 3 (Homo sapiens, UniProt P37231). Description: TR-FRET dose response biochemical High Throughput Screening assay for agonists of the steroid receptor coactivator 3 (SRC-3) recruitment by the peroxisome proliferator-activated receptor gamma (PPAR gamma): non-selective agonists. [Related pubchem assays: 1301 (Confirmation screen.), 1048 (Primary screen.)]. The class given is functional.

Assay [8] deals with Peroxisome proliferator-activated receptor gamma/Nuclear receptor coactivator 1 (Homo sapiens, UniProt P37231). Description: TR-FRET dose response biochemical High Throughput Screening assay for agonists of the steroid receptor coactivator 1 (SRC-1) recruitment by the peroxisome proliferator-activated receptor gamma (PPAR gamma): non-selective agonists. [Related pubchem assays (depositor defined):AID1300, AID1808, AID504735, AID631]. The class given is protein assay.
Chain of Peroxisome proliferator-activated receptor gamma/Nuclear receptor coactivator 1 (P37231 whole entry): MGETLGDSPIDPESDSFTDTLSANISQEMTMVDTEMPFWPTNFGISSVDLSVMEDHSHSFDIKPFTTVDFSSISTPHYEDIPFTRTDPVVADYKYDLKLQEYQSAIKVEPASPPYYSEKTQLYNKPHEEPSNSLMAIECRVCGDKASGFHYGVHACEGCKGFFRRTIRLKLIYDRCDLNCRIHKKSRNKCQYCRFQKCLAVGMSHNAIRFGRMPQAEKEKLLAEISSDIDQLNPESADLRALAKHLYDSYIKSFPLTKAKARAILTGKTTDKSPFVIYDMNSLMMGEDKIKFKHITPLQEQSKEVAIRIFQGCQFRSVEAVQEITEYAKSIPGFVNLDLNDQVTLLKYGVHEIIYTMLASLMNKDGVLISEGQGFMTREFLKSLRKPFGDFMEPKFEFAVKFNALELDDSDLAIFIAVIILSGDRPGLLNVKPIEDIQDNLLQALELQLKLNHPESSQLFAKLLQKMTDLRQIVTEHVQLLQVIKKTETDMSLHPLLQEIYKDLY
Chain of Peroxisome proliferator-activated receptor gamma/Nuclear receptor coactivator 1 (Q15788 whole entry, further chain): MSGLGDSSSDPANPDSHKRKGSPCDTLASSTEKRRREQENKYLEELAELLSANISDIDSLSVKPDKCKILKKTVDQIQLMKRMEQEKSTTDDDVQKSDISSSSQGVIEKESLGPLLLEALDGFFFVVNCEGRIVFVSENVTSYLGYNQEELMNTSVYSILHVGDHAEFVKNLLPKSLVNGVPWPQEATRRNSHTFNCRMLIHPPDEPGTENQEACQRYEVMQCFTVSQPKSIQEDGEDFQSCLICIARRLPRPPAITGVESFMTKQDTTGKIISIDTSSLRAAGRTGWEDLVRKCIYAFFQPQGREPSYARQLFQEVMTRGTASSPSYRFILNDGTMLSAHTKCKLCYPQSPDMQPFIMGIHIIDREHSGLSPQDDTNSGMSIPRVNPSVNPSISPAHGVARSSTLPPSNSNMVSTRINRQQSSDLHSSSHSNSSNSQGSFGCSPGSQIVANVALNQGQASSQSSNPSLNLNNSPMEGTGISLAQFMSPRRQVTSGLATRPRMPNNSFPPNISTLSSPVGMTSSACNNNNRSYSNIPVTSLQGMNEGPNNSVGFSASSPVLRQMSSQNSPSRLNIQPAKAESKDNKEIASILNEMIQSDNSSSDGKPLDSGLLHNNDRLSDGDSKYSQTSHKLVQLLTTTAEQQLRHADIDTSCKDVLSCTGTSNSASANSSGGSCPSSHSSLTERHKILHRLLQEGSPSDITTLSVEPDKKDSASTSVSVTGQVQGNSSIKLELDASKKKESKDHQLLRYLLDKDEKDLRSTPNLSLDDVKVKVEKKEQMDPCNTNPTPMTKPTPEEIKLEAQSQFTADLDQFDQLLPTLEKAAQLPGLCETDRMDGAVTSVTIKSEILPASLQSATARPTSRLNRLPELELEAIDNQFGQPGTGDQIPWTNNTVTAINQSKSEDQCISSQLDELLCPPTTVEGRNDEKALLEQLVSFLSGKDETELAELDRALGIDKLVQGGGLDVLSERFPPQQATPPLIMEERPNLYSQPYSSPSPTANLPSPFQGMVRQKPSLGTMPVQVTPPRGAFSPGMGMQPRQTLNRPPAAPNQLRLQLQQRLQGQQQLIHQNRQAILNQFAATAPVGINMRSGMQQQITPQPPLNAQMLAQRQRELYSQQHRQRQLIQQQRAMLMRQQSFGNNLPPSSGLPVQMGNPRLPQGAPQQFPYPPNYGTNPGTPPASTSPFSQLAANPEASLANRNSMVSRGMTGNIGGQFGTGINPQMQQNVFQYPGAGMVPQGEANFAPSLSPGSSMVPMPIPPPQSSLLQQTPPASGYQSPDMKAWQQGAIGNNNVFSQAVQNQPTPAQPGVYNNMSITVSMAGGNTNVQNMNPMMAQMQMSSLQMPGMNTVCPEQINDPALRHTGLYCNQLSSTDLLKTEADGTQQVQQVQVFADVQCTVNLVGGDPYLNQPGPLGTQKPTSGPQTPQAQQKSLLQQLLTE

Assay [9] concerns the target Peroxisome proliferator-activated receptor gamma/Nuclear receptor coactivator 2 (Homo sapiens, UniProt P37231). Description: TR-FRET dose response biochemical High Throughput Screening assay for agonists of the steroid receptor coactivator 2 (SRC-2) recruitment by the peroxisome proliferator-activated receptor gamma (PPAR gamma): non-selective agonists. [Related pubchem assays: 1297, 1032 ]. The assay is classed as functional.

The target of another assay is T2, Hexokinase-1 (Homo sapiens, UniProt P19367).
T2 sequence (P19367 whole entry): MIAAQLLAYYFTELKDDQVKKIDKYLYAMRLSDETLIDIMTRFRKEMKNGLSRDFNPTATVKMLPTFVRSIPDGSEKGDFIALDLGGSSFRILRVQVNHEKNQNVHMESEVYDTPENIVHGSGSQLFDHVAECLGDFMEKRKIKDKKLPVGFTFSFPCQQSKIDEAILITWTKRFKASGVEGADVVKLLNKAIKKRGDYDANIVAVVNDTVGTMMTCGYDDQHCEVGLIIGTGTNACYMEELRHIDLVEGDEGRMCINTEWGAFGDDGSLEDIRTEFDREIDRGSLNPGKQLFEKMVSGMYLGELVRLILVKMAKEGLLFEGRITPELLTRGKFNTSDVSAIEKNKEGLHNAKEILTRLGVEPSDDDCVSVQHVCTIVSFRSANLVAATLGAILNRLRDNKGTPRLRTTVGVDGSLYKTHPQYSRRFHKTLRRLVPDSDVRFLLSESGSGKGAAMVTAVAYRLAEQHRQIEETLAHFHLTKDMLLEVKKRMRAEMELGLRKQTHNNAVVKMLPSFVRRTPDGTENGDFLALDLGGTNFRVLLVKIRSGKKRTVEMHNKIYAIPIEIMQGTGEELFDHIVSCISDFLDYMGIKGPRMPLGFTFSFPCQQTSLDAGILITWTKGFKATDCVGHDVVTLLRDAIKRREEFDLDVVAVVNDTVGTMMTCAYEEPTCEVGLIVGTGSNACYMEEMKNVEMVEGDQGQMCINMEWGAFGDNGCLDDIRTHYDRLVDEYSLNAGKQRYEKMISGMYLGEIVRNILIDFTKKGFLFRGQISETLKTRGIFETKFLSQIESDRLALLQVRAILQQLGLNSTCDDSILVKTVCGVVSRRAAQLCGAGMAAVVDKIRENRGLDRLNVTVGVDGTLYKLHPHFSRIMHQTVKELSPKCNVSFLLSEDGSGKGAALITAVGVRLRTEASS
In words: hexokinase 1 activators, dose response, selectivity assay for HKDC1 activator project, biochemical (AID 504762). The class given is functional.

Another assay concerns the target T3, Hexokinase HKDC1 (Homo sapiens, UniProt Q2TB90).
T3 sequence (Q2TB90 whole entry): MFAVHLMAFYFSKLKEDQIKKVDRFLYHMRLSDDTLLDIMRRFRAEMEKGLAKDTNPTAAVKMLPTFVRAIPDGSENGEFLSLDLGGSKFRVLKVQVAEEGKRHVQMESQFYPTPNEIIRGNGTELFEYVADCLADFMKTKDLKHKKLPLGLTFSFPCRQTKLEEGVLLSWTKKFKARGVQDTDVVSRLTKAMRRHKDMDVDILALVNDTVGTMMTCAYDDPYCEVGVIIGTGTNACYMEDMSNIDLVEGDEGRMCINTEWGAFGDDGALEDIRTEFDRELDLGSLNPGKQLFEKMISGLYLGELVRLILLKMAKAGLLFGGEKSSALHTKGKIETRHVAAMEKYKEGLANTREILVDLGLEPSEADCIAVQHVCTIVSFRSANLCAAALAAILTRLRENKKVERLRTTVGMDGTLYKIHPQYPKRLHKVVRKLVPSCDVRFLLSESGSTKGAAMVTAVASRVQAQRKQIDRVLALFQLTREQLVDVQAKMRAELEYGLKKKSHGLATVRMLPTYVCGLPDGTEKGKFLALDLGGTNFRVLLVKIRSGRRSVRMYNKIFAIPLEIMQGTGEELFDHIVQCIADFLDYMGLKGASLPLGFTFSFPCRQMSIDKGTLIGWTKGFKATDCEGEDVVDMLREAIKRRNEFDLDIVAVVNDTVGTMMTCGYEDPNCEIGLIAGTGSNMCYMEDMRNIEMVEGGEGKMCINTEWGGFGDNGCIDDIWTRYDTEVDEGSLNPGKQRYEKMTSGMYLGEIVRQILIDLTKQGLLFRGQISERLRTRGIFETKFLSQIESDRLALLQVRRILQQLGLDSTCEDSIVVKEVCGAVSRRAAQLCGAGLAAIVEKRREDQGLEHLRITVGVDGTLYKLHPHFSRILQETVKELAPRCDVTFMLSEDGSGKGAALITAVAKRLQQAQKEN
Description: HKDC1 hexokinase activators, dose response, biochemical, W721R variant (AID 504730). The assay is classed as functional.

A further assay concerns the target Paired box protein Pax-8 (Homo sapiens, UniProt Q06710). Description: inhibitors of PAX8-driven TPO luciferase reporter, dose response, RMG-I cells, cherry-pick (AID 687027).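 Note: luciferase reporter driven by Pax8 target thyroperoxidase promoter measured by SteadyGlo luminescence.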 The assay is classed as functional, cell-based. In general terms: Reporter assays use an easily measured gene product as a stand-in for the process of interest.
The target of a further assay is Nonstructural protein 1 (Influenza A virus, UniProt Q194T2). The class given is functional, Influenza A virus (A/California/07/2009(H1N1)).
Chain of Nonstructural protein 1 (Q194T2 whole entry): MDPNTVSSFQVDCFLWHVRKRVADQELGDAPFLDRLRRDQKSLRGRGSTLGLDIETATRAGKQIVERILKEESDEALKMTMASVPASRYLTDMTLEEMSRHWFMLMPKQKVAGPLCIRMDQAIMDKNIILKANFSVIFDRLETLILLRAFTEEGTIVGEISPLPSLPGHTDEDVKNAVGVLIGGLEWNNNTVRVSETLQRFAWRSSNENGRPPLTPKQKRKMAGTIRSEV
Assay [10] concerns the target Heat shock protein HSP 90-alpha (Homo sapiens, UniProt P07900). The assay is classed as functional, organism-based.

SMILES strings stand for the structures. Calls of active or inactive are those of the source.

Chain of Peroxisome proliferator-activated receptor gamma/Nuclear receptor coactivator 2 (P37231 whole entry): as the sequence (P37231 whole entry) above
Chain of Peroxisome proliferator-activated receptor gamma/Nuclear receptor coactivator 2 (Q15596 whole entry, further chain): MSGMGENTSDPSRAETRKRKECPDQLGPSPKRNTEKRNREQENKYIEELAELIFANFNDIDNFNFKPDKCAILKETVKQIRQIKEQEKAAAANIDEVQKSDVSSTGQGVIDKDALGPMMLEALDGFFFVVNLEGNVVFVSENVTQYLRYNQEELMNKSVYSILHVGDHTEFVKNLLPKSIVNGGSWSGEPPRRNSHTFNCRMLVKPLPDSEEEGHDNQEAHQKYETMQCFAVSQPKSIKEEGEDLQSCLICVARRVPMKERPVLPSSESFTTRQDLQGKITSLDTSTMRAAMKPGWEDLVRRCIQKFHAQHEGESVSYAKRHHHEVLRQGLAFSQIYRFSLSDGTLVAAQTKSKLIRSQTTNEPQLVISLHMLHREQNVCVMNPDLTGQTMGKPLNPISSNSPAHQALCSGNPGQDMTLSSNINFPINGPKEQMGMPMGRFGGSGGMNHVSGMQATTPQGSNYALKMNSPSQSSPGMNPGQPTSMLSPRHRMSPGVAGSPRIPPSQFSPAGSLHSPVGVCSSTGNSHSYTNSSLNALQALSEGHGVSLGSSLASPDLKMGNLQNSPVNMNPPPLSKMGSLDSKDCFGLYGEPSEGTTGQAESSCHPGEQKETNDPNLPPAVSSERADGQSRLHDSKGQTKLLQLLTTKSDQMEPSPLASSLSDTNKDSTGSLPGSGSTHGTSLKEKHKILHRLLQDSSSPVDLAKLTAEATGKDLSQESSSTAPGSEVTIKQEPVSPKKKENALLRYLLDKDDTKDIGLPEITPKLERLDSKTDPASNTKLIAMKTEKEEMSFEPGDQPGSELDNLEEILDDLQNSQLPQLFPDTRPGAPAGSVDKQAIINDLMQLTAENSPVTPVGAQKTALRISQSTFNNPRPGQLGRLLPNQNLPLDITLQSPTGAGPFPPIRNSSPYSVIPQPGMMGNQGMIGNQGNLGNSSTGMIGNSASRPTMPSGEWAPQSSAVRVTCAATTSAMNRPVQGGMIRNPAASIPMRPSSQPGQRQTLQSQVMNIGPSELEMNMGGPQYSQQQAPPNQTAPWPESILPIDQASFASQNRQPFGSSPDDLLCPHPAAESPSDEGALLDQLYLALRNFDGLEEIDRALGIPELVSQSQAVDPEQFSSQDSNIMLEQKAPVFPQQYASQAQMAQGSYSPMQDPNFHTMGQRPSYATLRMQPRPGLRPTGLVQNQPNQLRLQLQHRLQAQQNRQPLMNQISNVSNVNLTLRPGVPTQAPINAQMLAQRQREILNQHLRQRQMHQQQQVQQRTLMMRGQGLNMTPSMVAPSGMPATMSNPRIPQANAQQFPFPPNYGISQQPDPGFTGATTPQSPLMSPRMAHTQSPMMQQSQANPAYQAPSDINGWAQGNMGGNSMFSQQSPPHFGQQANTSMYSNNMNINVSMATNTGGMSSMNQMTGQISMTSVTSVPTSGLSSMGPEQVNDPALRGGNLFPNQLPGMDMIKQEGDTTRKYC
Chain of Paired box protein Pax-8 (Q06710 whole entry): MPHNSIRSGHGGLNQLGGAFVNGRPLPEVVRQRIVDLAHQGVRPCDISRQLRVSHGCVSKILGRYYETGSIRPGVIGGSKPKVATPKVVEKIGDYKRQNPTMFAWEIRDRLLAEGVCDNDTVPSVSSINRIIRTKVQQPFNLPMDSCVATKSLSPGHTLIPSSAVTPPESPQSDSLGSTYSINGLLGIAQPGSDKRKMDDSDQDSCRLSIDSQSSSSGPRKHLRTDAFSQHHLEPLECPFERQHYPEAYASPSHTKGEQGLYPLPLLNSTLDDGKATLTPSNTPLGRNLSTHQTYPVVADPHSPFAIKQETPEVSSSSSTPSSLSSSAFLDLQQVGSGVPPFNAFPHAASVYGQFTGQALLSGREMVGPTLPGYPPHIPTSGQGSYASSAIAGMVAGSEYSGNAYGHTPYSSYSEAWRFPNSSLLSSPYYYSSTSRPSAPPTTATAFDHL

For the compound `O=C(Nc1cccc(S(=O)(=O)N2CCCCC2)c1)c1ccc([N+](=O)[O-])o1`, the AC50 in assay [1] was 2.44 µM (active); in [5], 11.9 µM (active). In addition, the EC50 (in assay [2]; with H4; in assay [6]) was > 120 µM (not active) in each case. The CC50 was 8.73 µM (active) in assay [3] and 4.29 µM (active) in assay [4]. In addition, the IC50 in the assay “cells” was 5.03 µM (active).
On to `Fc1cccc(CSc2ncnc3c2oc2ccccc23)c1`, for which the EC50 in assay [7] is 85.8 µM (not active); in assay [8], 24.2 µM (inactive); in assay [9], 14.3 µM (not active).
For `Cc1ccc2oc(=O)c3cnn(CC(=O)N4CCc5ccccc5C4)c3c2c1`, the EC50 on Hexokinase-1 was 36.7 µM (inactive); on Hexokinase HKDC1, 16 µM (active).
For `O=C(CSc1ccccc1)Nc1ccc(C(=O)Nc2ccc(O)cc2)cc1`, the EC50 was 58.3 µM (not active) in assay [7], 9.68 µM (active) in [8] and 8.24 µM (active) in assay [9].
`CC(=NNC(=S)N1CCN(C2CCCCCC2)CC1)c1ccccn1`: the EC50 was > 80 µM (inactive) at Hexokinase-1 and 8.14 µM (active) on Hexokinase HKDC1. For the same compound, the AC50 on Paired box protein Pax-8 is < 0.26 µM (active); in assay [10], 3.35 µM (active). The IC50 at Nonstructural protein 1 was 1.66 µM (active).
